Test results from US20230060425A1, “FUSED BICYCLIC HETEROCYCLE DERIVATIVES AS PESTICIDES” (Bayer Aktiengesellschaft, priority 2019, published 2023).
Like-named read-outs stand apart in the source and are kept apart here.

Assays:
Type in all cases: in vivo
Ctenocephalides felis [1] = experiment: Ctenocephalides felis in vitro contact test with adult cat fleas; conditions: application rate 5 μg/cm^2 (=500 g/ha); after 48 h; fleas dead or moribund
Description: Ctenocephalides felis—In Vitro Contact Tests with Adult Cat Fleas
(§1) For the coating of the test tubes, 9 mg of active compound are first dissolved in 1 ml of acetone p.a. and then diluted to the desired concentration with acetone p.a. 250 μl of the solution are distributed homogeneously on the inner walls and the base of a 25 ml glass tube by turning and rocking on an orbital shaker (rocking rotation at 30 rpm for 2 h). With 900 ppm of active compound solution and internal surface area 44.7 cm^2, given homogeneous distribution, an area-based dose of 5 μg/cm^2 is achieved.
After the solvent has evaporated off, the tubes are populated with 5-10 adult cat fleas (Ctenocephalides felis), sealed with a perforated plastic lid and incubated in a horizontal position at room temperature and ambient humidity. After 48 h, efficacy is determined. To this end, the tubes are stood upright and the fleas are knocked to the base of the tube. Fleas which remain motionless at the base or move in an uncoordinated manner are considered to be dead or moribund.
100% efficacy means that all the fleas were dead or moribund. 0% efficacy means that no fleas were harmed.

Myzus persicae [2] = experiment: Myzus persicae spray test (MYZUPE), comparative; conditions: 120 h, 5 dat, read-out: % Efficacy; for Emax at 4 g/ha: 4 g of ai/ha; for Emax at 20 g/ha: 20 g of ai/ha
Description: Myzus persicae—Spray Test (MYZUPE)
(§2) Solvent: • 78.0 parts by weight of acetone • 1.5 parts by weight of dimethylformamide
(§3) Emulsifier: alkylaryl polyglycol ether
(§4) To produce a suitable active compound preparation, 1 part by weight of active compound is dissolved using the stated parts by weight of solvent and made up with water containing an emulsifier concentration of 1000 ppm until the desired concentration is attained. To produce further test concentrations, the formulation is diluted with emulsifier-containing water.
Discs of Chinese cabbage leaves (Brassica pekinensis) infested by all stages of the green peach aphid (Myzus persicae) are sprayed with an active compound preparation of the desired concentration.
(§5) After the desired period of time, the efficacy in % is determined. 100% means that all the aphids have been killed; 0% means that no aphids have been killed.

Spodoptera frugiperda [3] = experiment: Spodoptera frugiperda spray test (SPODFR), comparative; conditions: 168 h, 0.8 g of ai/ha, 7 dat, read-out: % Efficacy
Description: Spodoptera frugiperda—Spray Test (SPODFR)
as §2, §3, §4
Leaf discs of maize (Zea mays) are sprayed with an active compound formulation of the desired concentration and, after drying, populated with caterpillars of the armyworm (Spodoptera frugiperda).
After the desired period of time, the efficacy in % is determined. 100% means that all the caterpillars have been killed; 0% means that no caterpillar has been killed.

Rhipicephalus sanguineus = Rhipicephalus sanguineus in vitro contact test with adult brown dog ticks; conditions: application rate 5 μg/cm^2; after 48 h; ticks dead or moribund
Description: Rhipicephalus sanguineus—In Vitro Contact Tests with Adult Brown Dog Ticks
as §1
After the solvent has evaporated off, the tubes are populated with 5-10 adult dog ticks (Rhipicephalus sanguineus), sealed with a perforated plastic lid and incubated in a horizontal position in the dark at room temperature and ambient humidity. After 48 h, efficacy is determined. To this end, the ticks are knocked to the base of the tube and incubated on a hotplate at 45-50° C. for not more than 5 min. Ticks which remain motionless on the base or move in such an uncoordinated manner that they are unable to deliberately avoid the heat by climbing upwards are considered to be dead or moribund.
An efficacy of 100% means that all the ticks were dead or moribund. 0% efficacy means that none of the ticks were harmed.

Aphis gossypii = Aphis gossypii spray test (APHIGO S); conditions: 144 h, 6 dat, read-out: % Efficacy
Description: Aphis gossypii—Spray Test (APHIGO S)
(§6) Solvent: 14 parts by weight of dimethylformamide
as §3
as §4, with “water. If the addition of ammonium salts or/and penetrants is required, these are each added in a concentration of 1000 ppm to the formulation solution.” for “water.”
Cotton plants (Gossypium hirsutum) heavily infested by the cotton aphid (Aphis gossypii) are sprayed with an active compound formulation of the desired concentration.
After the desired time, the kill in % is determined. 100% means that all the aphids have been killed; 0% means that no aphids have been killed.

Spodoptera frugiperda [4] = experiment: Spodoptera frugiperda test on maize plants (SPODFR S); conditions: 6 dai, read-out: % Efficacy
Description: Spodoptera frugiperda Test (SPODFR S)
as §6
(§7) Emulsifier: 2 parts by weight of alkylaryl polyglycol ether
(§8) To produce a suitable active compound formulation, 1 part by weight of active compound is dissolved with the stated parts by weight of solvent and emulsifier and made up to the desired concentration with water. To produce further test concentrations, water is used for dilution. In the event that addition of ammonium salts or/and penetrants (rapeseed oil methyl ester) is required, these are each pipetted in at a concentration of 1000 ppm after the finished formulation solution has been diluted.
Maize plants (Zea mays) are sprayed with an active compound formulation of the desired concentration and, in each case after 5, 12 and 19 days, populated with 5 caterpillars (L2) of the fall armyworm (Spodoptera frugiperda).
(§9) The kill is determined 6 days after the infection. 100% means that all the caterpillars have been killed and 0% means that none of the caterpillars have been killed.

Myzus persicae [5] = experiment: Myzus persicae spray test; conditions: foliar, 120 h, application rate 100 g/ha, Chinese cabbage leaf discs, after 5 days, read-out: efficacy
Description: Myzus persicae—Spray Test
Solvent: • 78 parts by weight of acetone • 1.5 parts by weight of dimethylformamide
as §3, §4
Discs of Chinese cabbage leaves (Brassica pekinensis) infested by all stages of the green peach aphid (Myzus persicae) are sprayed with an active compound formulation of the desired concentration.
After 5 days, the efficacy in % is determined. 100% means that all the aphids have been killed; 0% means that no aphids have been killed.

Phaedon cochleariae [6] = experiment: Phaedon cochleariae spray test; conditions: foliar, 168 h, application rate 100 g/ha, Chinese cabbage leaf discs, after 7 days, read-out: efficacy
Description: Phaedon cochleariae—Spray Test
as §2, §3, §4
Discs of Chinese cabbage leaves (Brassica pekinensis) are sprayed with an active compound formulation of the desired concentration and, after drying, populated with larvae of the mustard beetle (Phaedon cochleariae).
After 7 days, the efficacy in % is determined. 100% means that all the beetle larvae have been killed; 0% means that no beetle larvae have been killed.

Spodoptera frugiperda [7] = experiment: Spodoptera frugiperda spray test; conditions: foliar, 168 h, application rate 100 g/ha, maize leaf discs, after 7 days, read-out: efficacy
Description: Spodoptera frugiperda—Spray Test
as §2, §3
To produce further test concentrations, the formulation is diluted with emulsifier-containing water.
After 7 days, the efficacy in % is determined. 100% means that all the caterpillars have been killed; 0% means that no caterpillar has been killed.

Myzus persicae [8] = experiment: Myzus persicae oral test; conditions: 120 h, application rate 4 ppm, after 5 days, read-out: efficacy
In short: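 Aphid feeding test: compound dissolved in acetone, diluted with water and mixed with IPL41 insect medium plus sugar, offered through parafilm to a mixed population of green peach aphids. Mortality scored after 5 days as % efficacy (100% = all aphids dead, 0% = none dead).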

Lucilia cuprina = Lucilia cuprina test; conditions: application rate 100 ppm; L1 larvae; after 2 days
Description: (§10) Solvent: Dimethyl sulfoxide
To produce a suitable active compound formulation, 10 mg of active compound are mixed with 0.5 ml of dimethyl sulfoxide, and the concentrate is diluted with water to the desired concentration.
About 20 L1 larvae of the Australian sheep blowfly (Lucilia cuprina) are transferred into a test vessel containing minced horsemeat and the active compound formulation of the desired concentration.
After 2 days, the kill in % is determined. 100% means that all the larvae have been killed; 0% means that no larvae have been killed.

Ctenocephalides felis [9] = experiment: Ctenocephalides felis oral test; conditions: 48 h, application rate 100 ppm, in citrated cattle blood, after 2 days, read-out: efficacy (kill in %)
Description: Ctenocephalides felis—Oral Test
as §10
To produce a suitable active compound formulation, 10 mg of active compound are mixed with 0.5 ml of dimethyl sulfoxide. Dilution with citrated cattle blood gives the desired concentration.
About 20 unfed adult cat fleas (Ctenocephalides felis) are placed into a chamber which is closed at the top and bottom with gauze. A metal cylinder whose bottom end is closed with parafilm is placed onto the chamber. The cylinder contains the blood/active compound formulation, which can be imbibed by the fleas through the parafilm membrane.
After 2 days, the kill in % is determined. 100% means that all of the fleas have been killed; 0% means that none of the fleas have been killed.

Plutella xylostella = Plutella xylostella test (PLUTMA S); conditions: 456 h, infection 19 dat, 6 dai, read-out: % Efficacy
Description: Plutella xylostella Test (PLUTMA S)
as §6, §7, §8
Cabbage plants (Brassica oleracea var. sabauda) are sprayed with an active compound formulation of the desired concentration and, after 19 days, populated with 10 caterpillars (L2 larvae) of the diamond back moth (Plutella xylostella).
as §9

Myzus persicae [10] = experiment: Myzus persicae drench test (MYZUPE D); conditions: soil, 240 h, 10 dat, read-out: % Efficacy
Description: Myzus persicae—Drench Test (MYZUPE D)
Solvent: 7 parts by weight of dimethylformamide
Emulsifier: 2 part by weight of alkylaryl polyglycol ether
To produce a suitable active compound preparation, 1 part by weight of active compound is mixed with the specified amounts of solvent and emulsifier, and the concentrate is diluted with water to the desired concentration, it being necessary to include the volume of soil which is drenched in the calculation. It should be ensured that a concentration of 40 ppm of emulsifier in the soil is not exceeded. To produce further test concentrations, water is used for dilution.
Savoy cabbage (Brassica oleracea) in pots with soil and infested by all stages of the green peach aphid (Myzus persicae) is watered with an active compound preparation of the desired concentration.
as §5

Myzus persicae [11] = experiment: Myzus persicae spray test on bell pepper plants (MYZUPE S); conditions: 144 h, 6 dat, read-out: % Efficacy
Description: Myzus persicae—Spray Test (MYZUPE S)
as §6, §3
as §4, with “water. If the addition of ammonium salts or/and penetrants is required, these are each added in a concentration of 1000 ppm to the formulation solution.” for “water.”
Bell pepper plants (Capsicum annuum) severely infested with the green peach aphid (Myzus persicae) are treated by spraying with the active compound formulation in the desired concentration.
After the desired time, the kill in % is determined. 100% means that all the animals have been killed; 0% means that no animals have been killed.

Heliothis armigera = Heliothis armigera test (HELIAR S); conditions: Helicoverpa armigera, 6 dai, read-out: % Efficacy
Description: Heliothis armigera Test (HELIAR S)
as §6, §7, §8
Cotton plants (Gossypium hirsutum) are sprayed with an active compound formulation of the desired concentration and, in each case after 12 and 19 days, populated with 5 caterpillars (L2) of the cotton bollworm (Heliothis armigera).
as §9

Phaedon cochleariae [12] = experiment: Phaedon cochleariae test on cabbage plants (PHAECO S); conditions: 6 dai, read-out: % Efficacy
Description: Phaedon cochleariae Test (PHAECO S)
as §6, §7, §8
Cabbage plants (Brassica oleracea var. sabauda) are sprayed with an active compound formulation of the desired concentration and populated with 10 L2 larvae of the mustard beetle (Phaedon cochleariae).
After the desired time, the kill in % is determined. 100% means that all the larvae have been killed and 0% means that none of the larvae have been killed.

| SMILES | efficacy (Ctenocephalides felis [1]) | Emax at 4 g/ha (Myzus persicae [2]) | Emax at 20 g/ha (Myzus persicae [2]) | Emax at 0.8 g/ha (Spodoptera frugiperda [3]) | Emax at 4 ppm (Aphis gossypii) | Emax at 0.16 ppm (Spodoptera frugiperda [4]; 120 h, infection 5 dat) | Emax at 0.16 ppm (Spodoptera frugiperda [4]; 288 h, infection 12 dat) | Emax at 0.8 ppm (Spodoptera frugiperda [4]; 288 h, infection 12 dat) | pest or weed control at 100 g/ha (Myzus persicae [5]) | pest or weed control at 100 g/ha (Spodoptera frugiperda [7]) | pest or weed control at 4 ppm (Myzus persicae [8]) | Emax at 0.16 ppm (Spodoptera frugiperda [4]; 456 h, infection 19 dat) | Emax at 0.8 ppm (Spodoptera frugiperda [4]; 456 h, infection 19 dat) | Emax at 0.16 ppm (Plutella xylostella) | other results |
| --- | --- | --- | --- | --- | --- | --- | --- | --- | --- | --- | --- | --- | --- | --- | --- |
| CCS(=O)(=O)c1c(-c2nc3cc(C(F)(F)F)cnc3n2C)ncc2c(C(F)(F)F)cccc12 [Example I-032] | 100% | 90% | 100% | 100% | 90% | 100% | 70% | 100% | 100% | 100% | 100% | – | – | – | efficacy (Rhipicephalus sanguineus): 100%; pest or weed control at 100 g/ha (Phaedon cochleariae [6]): 100% |
| CCS(=O)(=O)c1ccc2c(S(=O)(=O)CC)c(-c3nc4cc(C(F)(F)F)cnc4n3C)ncc2c1 [Example I-034, 4,7-Bis(ethylsulfonyl)-3-[3-methyl-6-(trifluoromethyl)imidazo[4,5-b]pyridin-2-yl]isoquinoline] | 100% | – | – | – | – | – | – | – | 90% | 83% | 100% | – | – | – | efficacy (kill in %) (Lucilia cuprina): 100%; pest or weed control at 100 ppm (Ctenocephalides felis [9]): 100% |
| CCS(=O)(=O)c1c(-c2nc3cc(C(F)(F)F)cnc3n2C)ncc2cc(OCC(F)(F)F)ccc12 [Example I-036] | – | – | – | – | – | 90% | – | – | – | 100% | 100% | 70% | 100% | 80% | – |
| CCS(=O)(=O)c1c(-c2nc3cc(C(F)(F)F)cnc3n2C)ncc2cc(C(F)(F)F)ccc12 [Example I-51, reference compound] | – | 0% | 0% | 67% | 20% | 20% | 10% | 80% | – | – | – | 30% | 60% | 50% | Emax at 4 ppm (Myzus persicae [10]): 0%; Emax at 0.8 ppm (Myzus persicae [11]; 0.8 ppm): 0%; Emax at 4 ppm (Myzus persicae [11]; 4 ppm): 70%; Emax at 0.16 ppm (Heliothis armigera; 288 h, infection 12 dat): 40%; Emax at 0.16 ppm (Heliothis armigera; 456 h, infection 19 dat): 20%; Emax at 0.16 ppm (Phaedon cochleariae [12]; 120 h, infection 5 dat): 10%; Emax at 0.16 ppm (Phaedon cochleariae [12]; 288 h, infection 12 dat): 0%; Emax at 0.8 ppm (Phaedon cochleariae [12]; 288 h, 0.8 ppm, infection 12 dat): 40% |
